Experimental data: PubChem BioAssay (NCI)
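Assay format: 96-well plates, 48-hour exposure. GI50 is the concentration that inhibits growth by half. At the TGI there is no net growth.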

How the values were obtained:
Test in all cases: growth of human tumour cells (NCI), 48 h
MCF7 breast = test system: MCF7 breast
SN12C renal = test system: SN12C renal
UACC-62 melanoma = test system: UACC-62 melanoma
SNB-19 CNS = test system: SNB-19 CNS
KM12 colon = test system: KM12 colon
SF-539 CNS = test system: SF-539 CNS
U251 CNS = test system: U251 CNS
MALME-3M melanoma = test system: MALME-3M melanoma
HT29 colon = test system: HT29 colon
M14 melanoma = test system: M14 melanoma
HCT-116 colon = test system: HCT-116 colon
HOP-92 NSCLC = test system: HOP-92 NSCLC
NCI-H460 lung = test system: NCI-H460 lung
PC-3 prostate = test system: PC-3 prostate
786-0 renal = test system: 786-0 renal
OVCAR-4 ovarian = test system: OVCAR-4 ovarian
HCC-2998 colon = test system: HCC-2998 colon
RPMI-8226 leukemia = test system: RPMI-8226 leukemia
SF-295 CNS = test system: SF-295 CNS
NCI-H226 lung = test system: NCI-H226 lung
RXF 393 renal = test system: RXF 393 renal
OVCAR-3 ovarian = test system: OVCAR-3 ovarian
UACC-257 melanoma = test system: UACC-257 melanoma
BT-549 breast = test system: BT-549 breast
HOP-62 NSCLC = test system: HOP-62 NSCLC
NCI-H23 lung = test system: NCI-H23 lung
TK-10 renal = test system: TK-10 renal
CCRF-CEM leukemia = test system: CCRF-CEM leukemia
SK-MEL-2 melanoma = test system: SK-MEL-2 melanoma
ACHN renal = test system: ACHN renal
DU-145 prostate = test system: DU-145 prostate
K-562 leukemia = test system: K-562 leukemia
MOLT-4 leukemia = test system: MOLT-4 leukemia
MDA-MB-231 breast = test system: MDA-MB-231 breast
SK-MEL-5 melanoma = test system: SK-MEL-5 melanoma
LOX IMVI melanoma = test system: LOX IMVI melanoma
NCI-H522 lung = test system: NCI-H522 lung
HS 578T breast = test system: HS 578T breast
T-47D breast = test system: T-47D breast
OVCAR-5 ovarian = test system: OVCAR-5 ovarian
HL-60(TB) leukemia = test system: HL-60(TB) leukemia
IGROV1 ovarian = test system: IGROV1 ovarian
SF-268 CNS = test system: SF-268 CNS
HCT-15 colon = test system: HCT-15 colon
MDA-MB-435 = test system: MDA-MB-435
EKVX NSCLC = test system: EKVX NSCLC
UO-31 renal = test system: UO-31 renal
SW-620 colon = test system: SW-620 colon
NCI/ADR-RES ovarian = test system: NCI/ADR-RES ovarian
OVCAR-8 ovarian = test system: OVCAR-8 ovarian
A549 NSCLC = test system: A549 NSCLC
SR leukemia = test system: SR leukemia
SK-MEL-28 melanoma = test system: SK-MEL-28 melanoma
COLO 205 colon = test system: COLO 205 colon
SK-OV-3 ovarian = test system: SK-OV-3 ovarian
A498 renal = test system: A498 renal

CCCCN1CCCC[C@@H]1C(=O)N[C@H](C(=O)N(C)[C@H](C[C@@H](OC(C)=O)c1nc(C(=O)NC2CCC(C(=O)OC)CC2)cs1)C(C)C)C(C)C (some centres not stated)
GI50 (MCF7 breast): 806 nM
TGI (MCF7 breast): > 25000 nM
GI50 (SN12C renal): 2150 nM
TGI (SN12C renal): > 25000 nM
GI50 (UACC-62 melanoma): 1060 nM
TGI (UACC-62 melanoma): > 25000 nM
GI50 (SNB-19 CNS): 1830 nM
TGI (SNB-19 CNS): > 25000 nM
GI50 (KM12 colon): 1070 nM
TGI (KM12 colon): > 25000 nM
GI50 (SF-539 CNS): 1490 nM
TGI (SF-539 CNS): 11800 nM
GI50 (U251 CNS): 1180 nM
TGI (U251 CNS): > 25000 nM
GI50 (MALME-3M melanoma): 1970 nM
TGI (MALME-3M melanoma): > 25000 nM
GI50 (HT29 colon): 960 nM
TGI (HT29 colon): 13600 nM
GI50 (M14 melanoma): 983 nM
TGI (M14 melanoma): 18100 nM
GI50 (HCT-116 colon): 1000 nM
TGI (HCT-116 colon): > 25000 nM
GI50 (HOP-92 NSCLC): 1130 nM
TGI (HOP-92 NSCLC): > 25000 nM
GI50 (NCI-H460 lung): 1080 nM
TGI (NCI-H460 lung): > 25000 nM
GI50 (PC-3 prostate): 1410 nM
TGI (PC-3 prostate): > 25000 nM
GI50 (786-0 renal): 1500 nM
TGI (786-0 renal): > 25000 nM
GI50 (OVCAR-4 ovarian): 3950 nM
TGI (OVCAR-4 ovarian): > 25000 nM
GI50 (HCC-2998 colon): 4020 nM
TGI (HCC-2998 colon): > 25000 nM
GI50 (RPMI-8226 leukemia): 1100 nM
TGI (RPMI-8226 leukemia): > 25000 nM
GI50 (SF-295 CNS): 1010 nM
TGI (SF-295 CNS): 8060 nM
GI50 (NCI-H226 lung): 3840 nM
TGI (NCI-H226 lung): > 25000 nM
GI50 (RXF 393 renal): 995 nM
TGI (RXF 393 renal): 11600 nM
GI50 (OVCAR-3 ovarian): 1070 nM
TGI (OVCAR-3 ovarian): > 25000 nM
GI50 (UACC-257 melanoma): 2420 nM
TGI (UACC-257 melanoma): > 25000 nM
GI50 (BT-549 breast): 1400 nM
TGI (BT-549 breast): > 25000 nM
GI50 (HOP-62 NSCLC): 2350 nM
TGI (HOP-62 NSCLC): > 25000 nM
GI50 (NCI-H23 lung): 1500 nM
TGI (NCI-H23 lung): > 25000 nM
GI50 (TK-10 renal): > 25000 nM
TGI (TK-10 renal): > 25000 nM
GI50 (CCRF-CEM leukemia): 1100 nM
TGI (CCRF-CEM leukemia): > 25000 nM
GI50 (SK-MEL-2 melanoma): 5280 nM
TGI (SK-MEL-2 melanoma): > 25000 nM
GI50 (ACHN renal): 2390 nM
TGI (ACHN renal): > 25000 nM
GI50 (DU-145 prostate): 1310 nM
TGI (DU-145 prostate): > 25000 nM
GI50 (K-562 leukemia): 691 nM
TGI (K-562 leukemia): > 25000 nM
GI50 (MOLT-4 leukemia): 1180 nM
TGI (MOLT-4 leukemia): > 25000 nM
GI50 (MDA-MB-231 breast): 1890 nM
TGI (MDA-MB-231 breast): 18200 nM
GI50 (SK-MEL-5 melanoma): 1220 nM
TGI (SK-MEL-5 melanoma): > 25000 nM
GI50 (LOX IMVI melanoma): 1360 nM
TGI (LOX IMVI melanoma): > 25000 nM
GI50 (NCI-H522 lung): 897 nM
TGI (NCI-H522 lung): 7040 nM
GI50 (HS 578T breast): 1960 nM
TGI (HS 578T breast): > 25000 nM
GI50 (T-47D breast): 1620 nM
TGI (T-47D breast): > 25000 nM
GI50 (OVCAR-5 ovarian): 4750 nM
TGI (OVCAR-5 ovarian): > 25000 nM
GI50 (HL-60(TB) leukemia): 732 nM
TGI (HL-60(TB) leukemia): 2170 nM
GI50 (IGROV1 ovarian): 1880 nM
TGI (IGROV1 ovarian): > 25000 nM
GI50 (SF-268 CNS): 2290 nM
TGI (SF-268 CNS): > 25000 nM
GI50 (HCT-15 colon): 851 nM
TGI (HCT-15 colon): 16800 nM
GI50 (MDA-MB-435): 224 nM
TGI (MDA-MB-435): 736 nM
GI50 (EKVX NSCLC): 1150 nM
TGI (EKVX NSCLC): > 25000 nM
GI50 (UO-31 renal): 7060 nM
TGI (UO-31 renal): > 25000 nM
GI50 (SW-620 colon): 1060 nM
TGI (SW-620 colon): > 25000 nM
GI50 (NCI/ADR-RES ovarian): 3530 nM
TGI (NCI/ADR-RES ovarian): > 25000 nM
GI50 (OVCAR-8 ovarian): 2100 nM
TGI (OVCAR-8 ovarian): > 25000 nM
GI50 (A549 NSCLC): 1680 nM
TGI (A549 NSCLC): > 25000 nM
GI50 (SR leukemia): 242 nM
TGI (SR leukemia): > 25000 nM
GI50 (SK-MEL-28 melanoma): 17900 nM
TGI (SK-MEL-28 melanoma): > 25000 nM
GI50 (COLO 205 colon): 1260 nM
TGI (COLO 205 colon): 11500 nM
GI50 (SK-OV-3 ovarian): 2140 nM
TGI (SK-OV-3 ovarian): > 25000 nM
GI50 (A498 renal): 6350 nM
TGI (A498 renal): > 25000 nM
